Measurements reported in publication PMC3214022, “Plasmodium falciparum Parasites Are Killed by a Transition State Analogue of Purine Nucleoside Phosphorylase in a Primate Animal Model” (PLoS ONE, 2011).
Values joined by “and” are separate entries in the source; they are usually repeats but may differ in a detail not shown here. Equal values may be shown once.

Experiment: Weights, CBC and blood chemistry, Table S1 sheet PD-1 (efficacy study in P. falciparum-infected Aotus)
Assay type: in vivo, Aotus lemurinus lemurinus
Settings: IV 10 mg/kg once a day/3 days
Method: Laboratory bred Aotus lemurinus lemurinus monkeys (0.75–0.89 kg) were maintained as described. […] Blood samples were collected before the treatment started (t = 0), 0.05 h, 0.5 h, 1 h, 2 h, 6 h, 24 h, 48 h, and 6, 12 and 18 days after the first dose from each monkey and processed as described below. Pharmacokinetic parameters were calculated using PKSolver. For efficacy studies, Aotus monkeys were inoculated intravenously with 5×10^6 parasites of the FVO strain of P. falciparum in an approved treatment protocol. […] Parasitaemia was determined by Giemsa-stained thick blood smears prepared daily from the marginal ear vein [41]. Blood samples were collected from each monkey and transferred to tubes containing lithium heparin, centrifuged and both plasma and blood cells were frozen at −80 °C until analysis. Animals received a physical examination and blood chemistry profiles were monitored after treatment as described previously. Any monkey not responding appropriately to treatment was cured of its infection with mefloquine (40 mg kg^−1). […] The day of clearance is defined as the first of three consecutive days in which the thick blood films are parasite negative. The day of recrudescence is the first of three consecutive days of positive thick blood films after a period of clearance. Suppression is defined as a transient decrease in the parasite count post-treatment without clearance.

Nc1nc2c(CN3CC(O)C(CO)C3)c[nH]c2c(=O)[nH]1 (centres unmarked) [BCX4945, 4′-deaza-1′-aza-2′-deoxy-1′-(9-methylene)-Immucillin-G]
Blood Urea Nitrogen (day 9, 10 mg/kg): 10.65 mg/dL and 14.3 mg/dL and 10.85 mg/dL and 10.75 mg/dL and 11.6 mg/dL and 17.75 mg/dL | Creatinine (day 9, 10 mg/kg): 0.59 mg/dL and 0.587 mg/dL and 0.522 mg/dL and 0.609 mg/dL and 0.7 mg/dL and 0.665 mg/dL | Erythrocytes (day 9, 10 mg/kg): 4.53e+06 µL⁻¹ and 4.52e+06 µL⁻¹ and 3.97e+06 µL⁻¹ and 3.87e+06 µL⁻¹ and 3.32e+06 µL⁻¹ and 5.16e+06 µL⁻¹ | Granulocytes (%) (day 9, 10 mg/kg): 19.7% and 21.4% and 19.2% and 30% and 21.1% and 36.1% | Hematocrit (day 9, 10 mg/kg): 36.1% and 34.4% and 30.6% and 31.6% and 28.1% and 40.4% | Hemoglobin (day 9, 10 mg/kg): 12 g/dL and 11.8 g/dL and 10.3 g/dL and 10.5 g/dL and 9.3 g/dL and 13.8 g/dL | Leucocytes (day 9, 10 mg/kg): 16700 µL⁻¹ and 22100 µL⁻¹ and 19500 µL⁻¹ and 11100 µL⁻¹ and 19200 µL⁻¹ and 19700 µL⁻¹ | Lymphocytes (%) (day 9, 10 mg/kg): 65.5% and 44.6% and 64.7% and 56.2% and 66.9% and 50.4% | Mean Corpuscular Hemoglobin (day 9, 10 mg/kg): 26.5 pg and 26.1 pg and 25.9 pg and 27.1 pg and 28.1 pg and 26.7 pg | Mean Corpuscular Volume (day 9, 10 mg/kg): 79.7 fL and 76.1 fL and 77.1 fL and 81.8 fL and 84.7 fL and 78.2 fL | Mean Hemoglobin Content (day 9, 10 mg/kg): 33.3 g/dL and 34.4 g/dL and 33.6 g/dL and 33.2 g/dL and 33.1 g/dL and 34.1 g/dL | Mean Platelet Volume (day 9, 10 mg/kg): 11.9 fL and 15.2 fL and 12.6 fL and 13.1 fL and 13.2 fL and 13.5 fL | Platelets (day 9, 10 mg/kg): 321000 µL⁻¹ and 270000 µL⁻¹ and 322000 µL⁻¹ and 237000 µL⁻¹ and 267000 µL⁻¹ and 336000 µL⁻¹ | Red Cell Distribution Width (day 9, 10 mg/kg): 12.8% and 11.8% and 11.5% and 13.6% and 12.1% | Reticulocytes (day 9, 10 mg/kg): 1.7% and 1.2% and 2.3% and 1.8% and 1.3% and 1.9% | WEIGHT (day 9, 10 mg/kg): 780 g and 698 g and 888 g and 790 g and 930 g and 685 g | Creatinine (day 12, 10 mg/kg): 0.555 mg/dL and 0.539 mg/dL and <0.500 mg/dL and 0.508 mg/dL and 0.604 mg/dL and 0.605 mg/dL | Erythrocytes (day 12, 10 mg/kg): 4.01e+06 µL⁻¹ and 4.03e+06 µL⁻¹ and 3.46e+06 µL⁻¹ and 5.43e+06 µL⁻¹ and 2.96e+06 µL⁻¹ and 4.66e+06 µL⁻¹ | Glutamate Pyruvate Transaminase (day 12, 10 mg/kg): 41.8 U/L and 40.8 U/L and 52.6 U/L and 38.7 U/L and 64.9 U/L and 39.6 U/L | Hematocrit (day 12, 10 mg/kg): 31.6% and 31.2% and 27.1% and 43.9% and 26.3% and 36.3% | Hemoglobin (day 12, 10 mg/kg): 10.9 g/dL and 10.7 g/dL and 9.2 g/dL and 14.9 g/dL and 8.6 g/dL and 12.7 g/dL | Leucocytes (day 12, 10 mg/kg): 36300 µL⁻¹ and 31000 µL⁻¹ and 41200 µL⁻¹ and 29300 µL⁻¹ and 42600 µL⁻¹ and 45600 µL⁻¹ | Lymphocytes (%) (day 12, 10 mg/kg): 72.6% and 57.1% and 73% and 56% and 73.9% and 60.8% | Lymphocytes (x 103/ul) (day 12, 10 mg/kg): 26.4 x 103/ul and 17.7 x 103/ul and 30.1 x 103/ul and 16.4 x 103/ul and 31.5 x 103/ul and 27.7 x 103/ul | Mean Corpuscular Hemoglobin (day 12, 10 mg/kg): 27.2 pg and 26.5 pg and 27.5 pg and 29 pg and 27.4 pg | Mean Corpuscular Volume (day 12, 10 mg/kg): 78.8 fL and 77.3 fL and 78.4 fL and 80.9 fL and 88.8 fL and 78 fL | Mean Hemoglobin Content (day 12, 10 mg/kg): 34.5 g/dL and 34.3 g/dL and 33.8 g/dL and 34.1 g/dL and 32.7 g/dL and 35.1 g/dL | Mean Platelet Volume (day 12, 10 mg/kg): 17.3 fL and 13.7 fL and 12.9 fL and 18.2 fL and 11.1 fL | Monocytes (x 103/ul) (day 12, 10 mg/kg): 3.5 x 103/ul and 4.3 x 103/ul and 6 x 103/ul and 4.1 x 103/ul | Red Cell Distribution Width (day 12, 10 mg/kg): 13.5% and 12.4% and 12.7% and 11.4% and 14.8% and 12.2% | Reticulocytes (day 12, 10 mg/kg): 1.7% and 2.1% and 2.5% and 2.6% and 1.3% | WEIGHT (day 12, 10 mg/kg): 766 g and 680 g and 832 g and 849 g and 684 g | Blood Urea Nitrogen (day 19, 10 mg/kg): 19.25 mg/dL and <10.0 mg/dL and 15.3 mg/dL and 13.8 mg/dL and 15.4 mg/dL and 13.5 mg/dL | Creatinine (day 19, 10 mg/kg): 0.514 mg/dL and <0.500 mg/dL and 0.504 mg/dL and 0.562 mg/dL and 0.507 mg/dL | Erythrocytes (day 19, 10 mg/kg): 4.88e+06 µL⁻¹ and 4.44e+06 µL⁻¹ and 4.27e+06 µL⁻¹ and 4e+06 µL⁻¹ and 4.12e+06 µL⁻¹ and 5.22e+06 µL⁻¹ | Glutamate Pyruvate Transaminase (day 19, 10 mg/kg): 29 U/L and 20.1 U/L and 31.3 U/L and 23.9 U/L and 26.3 U/L and 21.8 U/L | Hemoglobin (day 19, 10 mg/kg): 14.2 g/dL and 11.9 g/dL and 11.8 g/dL and 12.5 g/dL | Leucocytes (day 19, 10 mg/kg): 30100 µL⁻¹ and 23700 µL⁻¹ and 16700 µL⁻¹ and 22900 µL⁻¹ and 19600 µL⁻¹ and 17100 µL⁻¹ | Lymphocytes (%) (day 19, 10 mg/kg): 87.7% and 48.9% and 76.9% and 73.7% and 77.1% and 48.7% | Mean Corpuscular Hemoglobin (day 19, 10 mg/kg): 29 pg and 26.8 pg and 27.5 pg and 29.7 pg and 30.3 pg and 27.1 pg | Mean Corpuscular Volume (day 19, 10 mg/kg): 87.8 fL and 79.1 fL and 84.9 fL and 91.2 fL and 93.4 fL and 81.3 fL | Mean Hemoglobin Content (day 19, 10 mg/kg): 33.1 g/dL and 33.9 g/dL and 32.4 g/dL and 32.6 g/dL and 32.5 g/dL and 33.4 g/dL | Mean Platelet Volume (day 19, 10 mg/kg): 15.6 fL and 12.8 fL and 12.3 fL and 14.4 fL and 14.8 fL and 13.8 fL | Monocytes (%) (day 19, 10 mg/kg): 5.6% and 6.4% and 11.4% and 6.6% | Red Cell Distribution Width (day 19, 10 mg/kg): 23.9% and 15.2% and 21.7% and 23.4% and 22.5% and 17.2% | Reticulocytes (day 19, 10 mg/kg): 1.5% and 2% and 2.3% and 2.2% | WEIGHT (day 19, 10 mg/kg): 777 g and 684 g and 852 g and 754 g and 875 g and 690 g | Blood Urea Nitrogen (day 25, 10 mg/kg): 27.95 mg/dL and 24.85 mg/dL and 23.3 mg/dL and 19.35 mg/dL and 20.25 mg/dL | Creatinine (day 25, 10 mg/kg): <0.500 mg/dL and 0.563 mg/dL and 0.659 mg/dL and 0.585 mg/dL | Erythrocytes (day 25, 10 mg/kg): 4.42e+06 µL⁻¹ and 5.34e+06 µL⁻¹ and 5.57e+06 µL⁻¹ and 4.57e+06 µL⁻¹ and 4.75e+06 µL⁻¹ | Glutamate Pyruvate Transaminase (day 25, 10 mg/kg): 21.7 U/L and 23.8 U/L and 25 U/L and 26.2 U/L | Hematocrit (day 25, 10 mg/kg): 35.7% and 44.6% and 40.2% and 42.6% | Hemoglobin (day 25, 10 mg/kg): 12.1 g/dL and 15.2 g/dL and 15.3 g/dL and 13.4 g/dL and 14.4 g/dL | Leucocytes (day 25, 10 mg/kg): 11500 µL⁻¹ and 12400 µL⁻¹ and 15400 µL⁻¹ and 12700 µL⁻¹ and 10500 µL⁻¹ | Lymphocytes (%) (day 25, 10 mg/kg): 72.6% and 81.9% and 63.9% and 71.1% and 64.3% | Lymphocytes (x 103/ul) (day 25, 10 mg/kg): 8.3 x 103/ul and 10.2 x 103/ul and 9.8 x 103/ul and 9 x 103/ul and 6.8 x 103/ul | Mean Corpuscular Hemoglobin (day 25, 10 mg/kg): 27.3 pg and 28.5 pg and 27.5 pg and 29.3 pg and 30.2 pg | Mean Corpuscular Volume (day 25, 10 mg/kg): 80.8 fL and 83.6 fL and 80.1 fL and 88.1 fL and 89.5 fL | Mean Hemoglobin Content (day 25, 10 mg/kg): 33.8 g/dL and 34.1 g/dL and 34.3 g/dL and 33.2 g/dL and 33.7 g/dL | Mean Platelet Volume (day 25, 10 mg/kg): 12 fL and 13 fL and 11 fL | Monocytes (%) (day 25, 10 mg/kg): 11.3% and 6.2% and 5.7% and 7.9% and 8.2% | Monocytes (x 103/ul) (day 25, 10 mg/kg): 1.3 x 103/ul and 0.8 x 103/ul and 0.9 x 103/ul and 1 x 103/ul | Platelets (day 25, 10 mg/kg): 342000 µL⁻¹ and 291000 µL⁻¹ and 454000 µL⁻¹ and 397000 µL⁻¹ and 336000 µL⁻¹ | Red Cell Distribution Width (day 25, 10 mg/kg): 16.7% and 18.3% and 15.7% and 19.1% and 17.5% | Reticulocytes (day 25, 10 mg/kg): 2.1% and 1.8% and 1.7% and 2.6% and 2.4% | WEIGHT (day 25, 10 mg/kg): 825 g and 760 g and 690 g and 687 g | Blood Urea Nitrogen (day 26): 16.65 mg/dL | Creatinine (day 26): 0.537 mg/dL | Erythrocytes (day 26): 4.54e+06 µL⁻¹ | Glutamate Pyruvate Transaminase (day 26): 18.2 U/L | Granulocytes (%) (day 26): 46.7% | Granulocytes (x 103/ul) (day 26): 7.7 x 103/ul | Hematocrit (day 26): 35.9% | Hemoglobin (day 26): 12 g/dL | Leucocytes (day 26): 16500 µL⁻¹ | Lymphocytes (%) (day 26): 45.8% | Lymphocytes (x 103/ul) (day 26): 7.6 x 103/ul | Mean Corpuscular Hemoglobin (day 26): 26.3 pg | Mean Corpuscular Volume (day 26): 78.9 fL | Mean Hemoglobin Content (day 26): 33.4 g/dL | Mean Platelet Volume (day 26): 12.5 fL | Monocytes (%) (day 26): 7.5% | Monocytes (x 103/ul) (day 26): 1.2 x 103/ul | Platelets (day 26): 314000 µL⁻¹ | Red Cell Distribution Width (day 26): 16.2% | Reticulocytes (day 26): 1.9% | WEIGHT (day 26): 910 g | Creatinine (day -2, 10 mg/kg): 0.623 mg/dL and 0.539 mg/dL and 0.583 mg/dL and 0.677 mg/dL and 0.579 mg/dL and 0.564 mg/dL | Erythrocytes (day -2, 10 mg/kg): 6.51e+06 µL⁻¹ and 6.11e+06 µL⁻¹ and 6.26e+06 µL⁻¹ and 5.03e+06 µL⁻¹ and 5.52e+06 µL⁻¹ and 5.2e+06 µL⁻¹ | Hematocrit (day -2, 10 mg/kg): 50% and 47.6% and 40.6% and 44.3% and 42.4% | Hemoglobin (day -2, 10 mg/kg): 17.2 g/dL and 16.6 g/dL and 16.4 g/dL and 14.2 g/dL and 15.2 g/dL | Leucocytes (day -2, 10 mg/kg): 18500 µL⁻¹ and 15700 µL⁻¹ and 15900 µL⁻¹ and 16400 µL⁻¹ and 10600 µL⁻¹ and 21000 µL⁻¹ | Mean Corpuscular Hemoglobin (day -2, 10 mg/kg): 26.4 pg and 27.2 pg and 26.3 pg and 28.2 pg and 27.5 pg and 33.1 pg | Mean Corpuscular Volume (day -2, 10 mg/kg): 76.8 fL and 78 fL and 76.1 fL and 80.7 fL and 80.2 fL and 81.5 fL | Mean Hemoglobin Content (day -2, 10 mg/kg): 34.4 g/dL and 34.9 g/dL and 34.5 g/dL and 34.3 g/dL and 40.6 g/dL
